# Experimental data: BindingDB's records for patent US20250352549 (Avelos Therapeutics, 2025)
# Molecular target: T1, Serine/threonine-protein kinase greatwall (Human, UniProt Q96GX5)
# T1 sequence (Q96GX5 whole entry): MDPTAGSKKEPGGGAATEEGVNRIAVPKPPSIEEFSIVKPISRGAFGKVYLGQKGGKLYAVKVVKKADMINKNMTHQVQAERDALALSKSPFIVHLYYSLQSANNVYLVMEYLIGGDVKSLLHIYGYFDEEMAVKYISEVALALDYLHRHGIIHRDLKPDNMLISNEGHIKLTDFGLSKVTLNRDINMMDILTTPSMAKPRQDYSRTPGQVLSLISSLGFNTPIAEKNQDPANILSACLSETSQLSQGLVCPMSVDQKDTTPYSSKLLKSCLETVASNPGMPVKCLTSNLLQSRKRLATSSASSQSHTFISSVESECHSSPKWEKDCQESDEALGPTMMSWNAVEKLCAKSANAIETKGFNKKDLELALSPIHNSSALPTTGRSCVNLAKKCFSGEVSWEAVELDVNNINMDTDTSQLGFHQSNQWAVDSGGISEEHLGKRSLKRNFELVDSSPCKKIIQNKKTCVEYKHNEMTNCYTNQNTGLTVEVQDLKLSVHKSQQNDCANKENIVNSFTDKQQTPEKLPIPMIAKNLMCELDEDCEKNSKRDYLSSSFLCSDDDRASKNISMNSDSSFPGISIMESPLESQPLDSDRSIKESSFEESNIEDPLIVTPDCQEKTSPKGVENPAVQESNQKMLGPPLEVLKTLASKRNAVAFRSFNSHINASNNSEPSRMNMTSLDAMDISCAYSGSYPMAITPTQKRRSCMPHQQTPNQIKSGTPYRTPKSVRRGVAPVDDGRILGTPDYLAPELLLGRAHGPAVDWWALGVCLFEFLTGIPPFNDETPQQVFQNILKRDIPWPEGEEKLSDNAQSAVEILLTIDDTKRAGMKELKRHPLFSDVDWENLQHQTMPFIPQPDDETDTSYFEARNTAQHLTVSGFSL
# Experiment: MASTL Activity Assay
# Description: Wild-type human active MASTL (154 pM) was incubated in assay buffer (50 mM HEPES, 100 mM NaCl, 0.1 mM EGTA, 10 mM MgCl2, 0.01% Tween-20, 0.5 mM TCEP, pH 7.5) with biotin tagged 40-mer ENSA peptide (10 nM), test compound and ATP (18 μM) for 60 minutes at room temperature. Test compounds were assayed using a 12-point dose range consisting of a 0, DMSO control and 10 sequential doses consisting from 0.0005, 0.002, 0.005, 0.014, 0.04, 0.12, 0.37, 1.11, 3.33 and 10 μM. The DMSO concentration was the same (1%) in all samples. An equal volume of detection buffer (assay buffer+267.5 pM Ab-K, 1.25 nM SA-D2, 20 mM EDTA and 400 mM KF) was added to stop the reaction to make a final volume of 20 μl, RT for 60 mins. Activity was measured using a plate reader (PerkinElmer EnSight) by the FRET signal generated between SA-D2 (streptavidin-D2) and Ab-K (anti-phospho-Serine 67 ENSA antibody (rabbit polyclonal, using standard techniques by a commercial supplier) conjugated to Cryptate). HTRF reagents (CisBio) were prepared as per the manufacturer recommendations. The 40-mer biotin-tagged ENSA peptide (synthesised by Bionics) used was based around Serine 67 on ENSA ([…]).
row,SMILES,IC50
1,"Cc1ncc2ccc(-c3nc(N)nc(NC(C)(C)c4ccn(CCN)n4)n3)cn12 [US20250352549, Example 175]",< 500 nM
2,"Cc1ncc2ccc(-c3cc(NC(Cc4cccc(Cl)c4Cl)C(N)=O)nc(N)n3)cn12 (configuration not stated) [US20250352549, Example 148]",< 500 nM
3,"Cc1ncc2ccc(-c3nc(N)nc(N(C)C(c4c[nH]c(C(F)(F)F)n4)C(C)C)n3)cn12 (configuration not stated) [US20250352549, Example 161]",in the range around 750 nM
4,"Cc1ncc2ccc(-c3nc(N)nc(NC(c4ccc(C#N)cn4)C(C)C)n3)cn12 (configuration not stated) [US20250352549, Example 168]",> 1000 nM
5,"CCC(Nc1nc(N)nc(-c2ccc3cnc(C)n3c2)n1)c1ccc(F)cn1 (configuration not stated) [US20250352549, Example 140]",< 500 nM
6,"Cc1ncc2ccc(-c3nc(N)nc(NC(c4nc(C(F)(F)F)no4)C(C)C)n3)cn12 (configuration not stated) [US20250352549, Example 158]",> 1000 nM
7,"Cc1ncc2ccc(-c3cc(NC(Cc4cccc(F)c4F)C(=O)O)nc(N)n3)cn12 (configuration not stated) [US20250352549, Example 144]",< 500 nM
8,"Cc1ncc2ncc(-c3nc(N)nc(NC(C)(C)c4ccn(C(F)F)n4)n3)cn12 [US20250352549, Example 13]",> 1000 nM
9,"Cc1ncc2ccc(-c3cc(NCC(N)c4cccc(Cl)c4Cl)nc(N)n3)cn12 (configuration not stated) [US20250352549, Example 16]",< 500 nM
10,"Cc1ncc2ccc(-c3nc(N)nc(NC(c4nnc(C(F)(F)F)o4)C(C)C)n3)cn12 (configuration not stated) [US20250352549, Example 166]",> 1000 nM
11,"CCC(Nc1nc(N)nc(-c2ccc3[nH]ncc3c2)n1)c1c[nH]c(C(F)(F)F)n1 (configuration not stated) [US20250352549, Example 8]",< 500 nM
12,"Nc1nc(NC(c2c[nH]c(C(F)(F)F)n2)C2CC2)nc(-c2ccc3[nH]ncc3c2)n1 (configuration not stated) [US20250352549, Example 32]",< 500 nM
13,"CC(C)(Nc1nc(N)nc(-c2ccc3cnc(N)n3c2)n1)c1c[nH]c(C(F)(F)F)n1 [US20250352549, Example 11]",< 500 nM
14,"Cc1nn(C)c2cc(-c3nc(N)nc(NC(c4c[nH]c(C(F)(F)F)n4)C(C)C)n3)ccc12 (configuration not stated) [US20250352549, Example 44]",< 500 nM
15,"Cc1ncc2ccc(-c3nc(N)nc(NC(c4c[nH]c(C(F)(F)F)n4)C4CC4)n3)cn12 (configuration not stated) [US20250352549, Example 154]",< 500 nM
16,"CC(C)CC(Nc1nc(N)nc(-c2ccc3cn[nH]c3c2)n1)c1c[nH]c(C(F)(F)F)n1 (configuration not stated) [US20250352549, Example 179]",< 500 nM
17,"Cc1ncc2ccc(-c3nc(N)nc(NC(C)(C)c4nc(C(F)(F)F)no4)n3)cn12 [US20250352549, Example 160]",in the range around 750 nM
18,"CNc1nc(NC(C)(C)c2ccn(C(F)F)n2)nc(-c2ccc3cnn(C)c3c2)n1 [US20250352549, Example 172]",< 500 nM
19,"Cc1ncc2ccc(-c3nc(N)nc(NC(Cc4cccc(Cl)c4Cl)c4nc[nH]n4)n3)cn12 (configuration not stated) [US20250352549, Example 22]",< 500 nM
20,"CC(C)(Cc1cccc(Cl)c1Cl)Nc1nc(N)nc(-c2ccc3cnc(N)n3c2)n1 [US20250352549, Example 41]",< 500 nM
21,"Cc1ncc2ccc(-c3nc(C#N)nc(NC(Cc4cccc(Cl)c4Cl)C(=O)O)n3)cn12 (configuration not stated) [US20250352549, Example 15]",> 1000 nM
22,"Cc1ncc2ccc(-c3nc(N)nc(N(C)Cc4c[nH]c(C(F)(F)F)n4)n3)cn12 [US20250352549, Example 164]",< 500 nM
23,"COC(=O)C(Cc1cccc(Cl)c1Cl)Nc1nc(N)nc(-c2ccc3cnc(C)n3c2)n1 (configuration not stated) [US20250352549, Example 4]",< 500 nM
24,"CC(C)C(Nc1nc(N)nc(-c2ccc3[nH]ncc3c2)n1)c1c[nH]c(C(F)(F)F)n1 (configuration not stated) [US20250352549, Example 24]",< 500 nM
25,"Cc1ncc2ccc(-c3nc(N)nc(NC(c4ccc(CN)cn4)C(C)C)n3)cn12 (configuration not stated) [US20250352549, Example 178]",< 500 nM
26,"Cc1ncc2ccc(-c3nc(N)nc(NC(c4cn(C)c(C(F)(F)F)n4)C(C)C)n3)cn12 (configuration not stated) [US20250352549, Example 165]",< 500 nM

row,SMILES,IC50
1,"CNc1nc(NC(c2ccn(C(F)F)n2)C(C)C)nc(-c2ccc3[nH]ncc3c2)n1 (configuration not stated) [US20250352549, Example 27]",< 500 nM
2,"CC(C)(Nc1nc(N)nc(-c2ccc3cnc(O)n3c2)n1)c1ccn(C(F)F)n1 [US20250352549, Example 38]",> 1000 nM
3,"Cc1ncc2ccc(-c3nc(N)nc(NC(Cc4cccc(Cl)c4Cl)c4nnn[nH]4)n3)cn12 (configuration not stated) [US20250352549, Example 21]",< 500 nM
4,"COC(=O)C(Cc1cccc(Cl)c1Cl)Nc1cc(-c2ccc3cnc(C)n3c2)nc(N)n1 (configuration not stated) [US20250352549, Example 3]",< 500 nM
5,"CNc1nc(NC(Cc2cccc(Cl)c2Cl)C(=O)O)cc(-c2ccc3cnc(C)n3c2)n1 (configuration not stated) [US20250352549, Example 145]",< 500 nM
6,"CNc1nc(NC(c2ccn(C(F)F)n2)C(C)C)nc(-c2ccc3cn[nH]c3c2)n1 (configuration not stated) [US20250352549, Example 171]",< 500 nM
7,"Cn1ncc2cc(-c3nc(N)nc(NC(C)(C)c4c[nH]c(C(F)(F)F)n4)n3)ccc21 [US20250352549, Example 46]",< 500 nM
8,"Cc1ncc2ccc(-c3cc(NC(c4c[nH]c(C(F)(F)F)n4)C(C)C)nc(N)n3)cn12 (configuration not stated) [US20250352549, Example 150]",< 500 nM
9,"Cc1n[nH]c2ccc(-c3nc(N)nc(NC(c4c[nH]c(C(F)(F)F)n4)C(C)C)n3)cc12 (configuration not stated) [US20250352549, Example 35]",< 500 nM
10,"CNc1nc(NC(C)(C)c2ccn(C(F)F)n2)nc(-c2ccc3cnc(C)n3c2)n1 [US20250352549, Example 135]",< 500 nM
11,"Cc1ncc2ccc(-c3nc(N)nc(NCc4c[nH]c(C(F)(F)F)n4)n3)cn12 [US20250352549, Example 151]",< 500 nM
12,"CC(=O)NC(CNc1cc(-c2ccc3cnc(C)n3c2)nc(N)n1)c1cccc(Cl)c1Cl (configuration not stated) [US20250352549, Example 18]",< 500 nM
13,"[2H]C([2H])([2H])Nc1nc(NC(c2c[nH]c(C(F)(F)F)n2)C(C)C)nc(-c2ccc3cnn(C)c3c2)n1 (configuration not stated) [US20250352549, Example 31]",< 500 nM
14,"Cn1ncc2cc(-c3nc(N)nc(NC(C)(C)c4ccn(C(F)F)n4)n3)ccc21 [US20250352549, Example 48]",< 500 nM
15,"CONC(=O)C(Cc1cccc(Cl)c1Cl)Nc1nc(N)nc(-c2ccc3cnc(C)n3c2)n1 (configuration not stated) [US20250352549, Example 20]",< 500 nM
16,"CNc1ncc2ccc(-c3nc(N)nc(NC(C)(C)c4ccn(C(F)F)n4)n3)cn12 [US20250352549, Example 37]",< 500 nM
17,"[2H]C([2H])([2H])n1ncc2ccc(-c3nc(N)nc(NC(C)(C)c4ccn(C(F)F)n4)n3)cc21 [US20250352549, Example 9]",< 500 nM
18,"Cc1ncc2ccc(-c3nc(N)nc(NCc4nc(C(F)(F)F)no4)n3)cn12 [US20250352549, Example 159]",in the range around 750 nM
19,"CNc1nc(NC(C)(C)c2ccn(C(F)F)n2)nc(-c2ccc3[nH]ncc3c2)n1 [US20250352549, Example 26]",< 500 nM
20,"CC(C)CC(Nc1nc(N)nc(-c2ccc3[nH]ncc3c2)n1)c1c[nH]c(C(F)(F)F)n1 (configuration not stated) [US20250352549, Example 43]",in the range around 750 nM
21,"CC(C)C(Nc1nc(N)nc(-c2ccc3cn[nH]c3c2)n1)c1ccn(C(F)F)n1 (configuration not stated) [US20250352549, Example 167]",< 500 nM
22,"CCC(Nc1nc(N)nc(-c2ccc3cn[nH]c3c2)n1)c1c[nH]c(C(F)(F)F)n1 (configuration not stated) [US20250352549, Example 157]",< 500 nM
23,"Cc1ncc2ccc(-c3nc(N)nc(NC(c4ccccc4)c4c[nH]c(C(F)(F)F)n4)n3)cn12 (configuration not stated) [US20250352549, Example 2]",> 1000 nM
24,"Cn1ncc2ccc(-c3nc(N)nc(NC(C)(C)c4c[nH]c(C(F)(F)F)n4)n3)cc21 [US20250352549, Example 174]",< 500 nM
25,"Cc1ncc2ccc(-c3nc(N)nc(NC(C)c4ccc(F)cn4)n3)cn12 (configuration not stated) [US20250352549, Example 139]",< 500 nM
26,"Cc1ncc2ccc(-c3nc(N)nc(N(C)Cc4cccc(F)c4Cl)n3)cn12 [US20250352549, Example 162]",in the range around 750 nM
